The target of this test is E. coli gyrase A2B2 (Escherichia coli, UniProt P0AES6). As to the kind of experiment: E. coli gyrase A2B2 ATPase assay. It is filed as biochemical. As to conditions: 40 nM Gyr A2B2 from E coli, 0.9 mM ATP, 30° C., read-out: Activity against E. coli gyrase (Ki). Here is the method: The ATP hydrolysis activity of DNA gyrase was measured by coupling the production of ADP through pyruvate kinase/lactate dehydrogenase to the oxidation of NADH. This method has been described previously. (Tamura and Gellert, 1990, J. Biol. Chem. 265, 21342-21349).
ATPase assays were carried out at 30° C. in buffered solutions containing 100 mM TRIS pH 7.6, 1.5 mM MgCl2, and 150 mM KCl. The coupling system contained (final concentrations) 2.5 mM phosphoenol pyruvate, 200 μM nicotinamide adenine dinucleotide (NADH), 1 mM DTT, 30 ug/ml pyruvate kinase, and 10 ug/ml lactate dehydrogenase. 40 nM enzyme (374 kDa Gyr A2B2 from E coli) and a DMSO solution of the inhibitor to a final concentration of 4% were added and the reaction mixture allowed to incubate for 10 minutes at 30° C. The reaction was then started by the addition of ATP to a final concentration of 0.9 mM and the rate of NADH disappearance at 340 nm, measured over the course of 10 minutes. Ki values were determined from rate versus. inhibitor concentration profiles.

Usually Ki stands for a measure of affinity in units of concentration, obtained from inhibition or displacement.

As for `CCOC(=O)c1cc(-c2sc(-c3cccnc3)nc2CN2CCNCC2)n[nH]1` [IA-67], the Ki lay in the range of 500 to 1500 nM.

For the origin of these results see US20030170858A1, “Gyrase inhibitors and uses thereof” (priority 2001, published 2003).
